# Measurements: patent publication US20220402980A1, “CHROMOGRANIN A-DERIVED PEPTIDES AND USES THEREOF” (OSPEDALE SAN RAFFAELE S.R.L., priority 2019, published 2022)
# Where two headings read alike, the source gives them in different places. Where a SMILES comes first, the peptide text is derived from it. Bridges are numbered along the chain shown (N, C = ends). Triazole bridges read from a SMILES are 1,4-linked. [ ]: non-standard residue; d: D form. Lys(N3) = [N-]=[N+]=NCCCC[C@H](N)C(=O)O; Pra = C#CC[C@H](N)C(=O)O
# How the values were obtained:
# [1] = test system: 5637 cells; assay: Binding of peptide-IRDye conjugates to cultured 5637 cells; type: cell-based, human; conditions: 5637 cells; 5a-IRDye 4 nM
# Method: (§1) B) Binding of the indicated peptide-IRDye conjugates to the various cell lines. Various amounts of conjugates were added to cell monolayers (grown in 96-well microtiter plates) and incubated for 1 h at 37° C., 5% CO2 (see Experimental section). After washing, bound fluorescence was measured using an Odyssey CLx (LI-COR) scanner. A representative image of the scanned plate and binding quantification are reported. Mean ±SE of quadruplicate wells.
# (§2) Various amounts of unlabeled peptides were mixed 5a-IRDye (4 nM) and added to the cells. After 1 h, the plates were washed, and the bound fluorescence was quantified as described above (left panels).
# (§3) The binding of peptide-IRDye conjugates to BxPC-3, 5637, HUVECs, 4T1, K8484 and DT6606 cells was analyzed as follows. The cells were grown in 96-well clear-bottom black microtiterplates (Corning® cat. 3603, 2-3x10^4 cells/well, plated 48 h before the experiment). After washing twice with 0.9% sodium chloride solution, the cells were incubated with 25 mM Hepes buffer, pH 7.4, containing 150 mM sodium chloride, 1 mM magnesium chloride, 1 mM manganese chloride and 1% BSA (binding buffer) for 5 min. Peptide-IRDye conjugates (0.013-40 nM in binding buffer) were then added to the cells and left to incubate for 1 h at 37° C., 5% CO2. After three washings with binding buffer (5 min each, 200 al/well), the cells were fixed with PBS containing 2% paraformaldehyde and 3% sucrose for 15 min at room temperature. Binding of conjugates to cells was quantified by scanning the plate (filled with PBS, 100 al/well) with the Odyssey CLx (LI-COR) using the following settings: scan intensity, 8.5; scan focus offset 4; scan quality, highest; channel, 800; resolution, 169 pm. Then, the plates were incubated with 5 μg/ml of 4′,6-diamidino-2-phenylindole (DAPI) for 15 min, washed twice with PBS and read with a VICTOR3 plate reader (Perkin Elmer, Waltham, Mass., USA) to quantify the cell number in each well, using the following filters: excitation, 355±40 nm; emission, 460±25 nm (acquisition,1 s).
# [2] = test system: BxPC-3 cells; assay: Binding of peptide-IRDye conjugates to cultured BxPC-3 cells; type: cell-based, human; conditions: BxPC-3 cells; 5a-IRDye 4 nM
# Method: as §1, §2, §3
# [3] = biological target: T1, αvβ6 (Homo sapiens, UniProt P06756+P18564); assay: Competitive integrin binding assay (isoDGR/STV-HRP probe), αvβ6-coated plates
# T1 construct: recombinant human αvβ6 extracellular domain (R&D Systems); purchased R&D Systems (Minneapolis, Minn.)
# Method: (§4) Peptide binding was measured by a competitive binding assay using as integrin probe a complex made by a N-terminal acetylated isoDGR peptide biotinylated at the E-amino group of the lysine, acetyl-Ciso[…]-bio (SEQ ID No. 29), and a streptavidin-peroxidase conjugate (called isoDGR/STV-HRP)[43].
# (§5) Each mixture was then added to integrin-coated wells and left to incubate for 2 h at room temperature. After washing with 25 mM Tris-HCl, pH 7.4, containing 150 mM sodium chloride, 1 mM magnesium chloride, 1 mM manganese chloride, each well was filled with a chromogenic solution (o-phenylenediamine dihydrochloride) and left to incubate for 30 min at room temperature. The chromogenic reaction was stopped by adding 1 N sulfuric acid. The absorbance at 490 nm was then measured using a microtiterplate reader. Ki values were calculated by non-linear regression analysis of competitive binding data using the “One site - Fit Ki” equation of the GraphPad Prism Software using the Kd values of the probe indicated above.
# [4] = biological target: αvβ8 (Homo sapiens, UniProt P06756+P26012); assay: Competitive integrin binding assay (isoDGR/STV-HRP probe), αvβ8-coated plates
# Method: as §4, §5
# [5] = in vivo; conditions: mouse, iv, 3 MBq/animal, total radioactivity
# [6] = test system: human bladder carcinoma 5637 cells; assay: 5637 cell viability (PrestoBlue); type: cell-based; conditions: 48 h
# Method: FIG. 12. Effect of peptides 4 and 5 on human bladder carcinoma 5637 cell viability. 5637 cells were seeded in a 96-well microtiterplate (20,000 cell/well) and cultured for 16 h at 37° C., 5% CO2. The day after the indicated doses of peptide 4 and 5 were added to the cells and left to incubate for additionally 48 h at 37° C., 5% CO2. Cell viability was assessed using the PrestoBlue* cell viability reagent (ThermoFisher) according to the manufacturer's instructions. Viability of the treated cells was normalized to that of untreated cells and is reported as a percentage (mean±SE of triplicate wells).
# [7] = Peptide stability in mouse liver microsomal preparations (RP-HPLC); type: in vitro ADME; conditions: C57BL/6, mouse, liver microsomes; 37° C.; read-out: t1/2 in mouse liver microsomes (converted)
# Method: FIG. 14. Stability of peptides 4 and 5 in murine liver microsomes as determined by RP-HPLC. a) RP-HPLC of 4 and 5 after incubation at 37° C. in murine liver microsomes. Peak 1 corresponds to 4 and 5. The peptides were added to murine liver microsomes (454 - μg/ml, final concentration) and incubated for the indicated time, diluted with an equal volume of 90% acetonitrile containing 0.1% TFA and analyzed onto a LiChrospher C18 column (16 ag). No peptide indicates liver microsome aliquot without the peptide. b) Quantification of Peak 1 area (left panel) and height (right panel) of the indicated peptides. The corresponding half-life is also shown.
# The stability of compound 4 and 5 in mouse liver microsomal preparations was assessed by HPLC analysis. To this aim microsomes were prepared as follows: 11 g of mouse liver tissue (C57BL/6 mice) was homogenized in cold PBS supplemented with 0.25 M sucrose (3 ml/g of tissue) using a Potter-Elvehjem homogenizer (10 strokes), followed by additional homogenization using a rotor-stator homogenizer (40 sec). The homogenate was filtered through 70 pm cell-strainers, centrifuged three times to remove insoluble materials (500 x g, 5 min; 3000 x g, 30 min; 110000 x g, 90 min, 4° C.). […] Protein concentration was measured by measuring the absorbance at 280 nm with a NanoDrop spectrophotometer (Thermo Scientific). […]
smiles,measurement,setting,value
"CC[C@H](C)[C@H](NC(=O)[C@H](CCCNC(=N)N)NC(=O)[C@H](CCC(=O)O)NC(=O)[C@H](CCC(=O)O)NC(=O)CNC(=O)[C@H](CCCNC(=N)N)NC(=O)[C@H](CC(C)C)NC(=O)[C@@H](NC(=O)[C@H](CCC(=O)O)NC(=O)[C@H](Cc1ccccc1)NC(=O)[C@@H](N)CS)[C@@H](C)O)C(=O)N[C@@H](CC(C)C)C(=O)N[C@@H](CO)C(=O)N[C@H](C(=O)N[C@@H](CC(C)C)C(=O)N[C@@H](CCCNC(=N)N)C(=O)N[C@@H](Cc1c[nH]cn1)C(=O)N[C@@H](CCC(N)=O)C(=O)N[C@@H](CC(N)=O)C(=O)N[C@@H](CC(C)C)C(=O)N[C@@H](CC(C)C)C(=O)N[C@@H](CCCCN)C(=O)N[C@@H](CCC(=O)O)C(=O)N[C@@H](CC(C)C)C(=O)N[C@@H](CCC(N)=O)C(=O)N[C@@H](CC(=O)O)C(=O)O)[C@@H](C)CC [peptide 2a, reference compound] (H-CFETLRGEERILSILRHQNLLKELQD-OH; N-terminus and C-terminus assumed)",inhibition of 5a-IRDye binding by excess of free peptide,[1],not
same,inhibition of 5a-IRDye binding by excess of free peptide,[2],not
same,Ki,"[3]; Table 3b, mean ± SE, read-out: Binding affinity for αvβ6 Ki",> 50000 nM
same,Ki,"[4]; Table 3b, mean ± SE, read-out: Binding affinity for αvβ8 Ki",> 50000 nM
"CC[C@H](C)[C@H](NC(=O)[C@H](CCCNC(=N)N)NC(=O)[C@H](CC(C)C)NC(=O)[C@H](CC(=O)O)NC(=O)CNC(=O)[C@H](CCCNC(=N)N)NC(=O)[C@H](CC(C)C)NC(=O)[C@@H](NC(=O)[C@H](CCC(=O)O)NC(=O)[C@H](Cc1ccccc1)NC(=O)[C@@H](N)CS)[C@@H](C)O)C(=O)N[C@@H](CC(C)C)C(=O)N[C@@H](CO)C(=O)N[C@H](C(=O)N[C@@H](CC(C)C)C(=O)N[C@@H](CCCNC(=N)N)C(=O)N[C@H]1Cc2cn(nn2)CCCC[C@@H](C(=O)N[C@@H](CCCCN)C(=O)N[C@@H](CCC(=O)O)C(=O)N[C@@H](CC(C)C)C(=O)N[C@@H](CCC(N)=O)C(=O)N[C@@H](CC(=O)O)C(N)=O)NC(=O)[C@H](CC(C)C)NC(=O)[C@H](CC(N)=O)NC(=O)[C@H](CCC(N)=O)NC1=O)[C@@H](C)CC [peptide 5a, CFETLRGDLRILSILRX1QNLX2KELQD]",inhibition of 5a-IRDye binding by excess of free peptide,[1],significantly inhibited
same,inhibition of 5a-IRDye binding by excess of free peptide,[2],significantly inhibited
CC[C@H](C)[C@H](NC(=O)[C@H](CCCNC(=N)N)NC(=O)[C@H](CC(C)C)NC(=O)[C@H](CC(=O)O)NC(=O)CNC(=O)[C@H](CCCNC(=N)N)NC(=O)[C@H](CC(C)C)NC(=O)[C@@H](NC(=O)[C@H](CCC(=O)O)NC(=O)[C@H](Cc1ccccc1)NC(=O)[C@@H](N)CSC1CC(=O)N(CCNC(=O)CN2CCN(CC(=O)O)CCN(CC(=O)O)CC2)C1=O)[C@@H](C)O)C(=O)N[C@@H](CC(C)C)C(=O)N[C@@H](CO)C(=O)N[C@H](C(=O)N[C@@H](CC(C)C)C(=O)N[C@@H](CCCNC(=N)N)C(=O)N[C@H]1Cc2cn(nn2)CCCC[C@@H](C(=O)N[C@@H](CCCCN)C(=O)N[C@@H](CCC(=O)O)C(=O)N[C@@H](CC(C)C)C(=O)N[C@@H](CCC(N)=O)C(=O)N[C@@H](CC(=O)O)C(N)=O)NC(=O)[C@H](CC(C)C)NC(=O)[C@H](CC(N)=O)NC(=O)[C@H](CCC(N)=O)NC1=O)[C@@H](C)CC (some centres unmarked) [1^8F-NOTA-5a],tissue uptake at 2 h,"[5]; accumulation in intestine, femur, liver and stomach",~2 %ID/g
same,tissue uptake at 2 h,[5]; accumulation in the lungs,1.2 %ID/g
same,tissue uptake at 2 h,[5]; radiotracer levels in the kidneys,~80 %ID/g
same,tissue uptake at 2 h,"[5]; uptake in brain, heart, spleen, blood, muscle",< 0.5 %ID/g
"CC[C@H](C)[C@H](NC(=O)[C@H](CCCNC(=N)N)NC(=O)[C@H](CC(C)C)NC(=O)[C@H](CC(=O)O)NC(=O)CNC(=O)[C@H](CCCNC(=N)N)NC(=O)[C@H](CC(C)C)NC(=O)[C@@H](NC(=O)[C@H](CCC(=O)O)NC(=O)[C@H](Cc1ccccc1)NC(C)=O)[C@@H](C)O)C(=O)N[C@@H](CC(C)C)C(=O)N[C@@H](CO)C(=O)N[C@H](C(=O)N[C@@H](CC(C)C)C(=O)N[C@@H](CCCNC(=N)N)C(=O)N[C@H]1Cc2cn(nn2)CCCC[C@@H](C(=O)N[C@@H](CCCCN)C(=O)N[C@@H](CCC(=O)O)C(=O)N[C@@H](CC(C)C)C(=O)N[C@@H](CCC(N)=O)C(=O)N[C@@H](CC(=O)O)C(N)=O)NC(=O)[C@H](CC(C)C)NC(=O)[C@H](CC(N)=O)NC(=O)[C@H](CCC(N)=O)NC1=O)[C@@H](C)CC [peptide 5, FETLRGDLRILSILRX1QNLX2KELQD] (Ac-FETLRGDLRILSILR[Pra]QNL[Lys(N3)]KELQD-NH2; triazole 16-20)",cytotoxicity in vitro,[6],not cytotoxic
same,half-life at 454 μg/ml,[7],4.3 h
same,Ki,"[3]; Table 3a and text, ± standard error of the mean, read-out: Ki αvβ6",0.6 ± 0.1 nM
same,Ki,"[4]; Table 3a and text, ± standard error of the mean, read-out: Ki αvβ8",3.2 ± 1.2 nM
